Data reported in publication PMC9511493, “2-(Fluoromethoxy)-4′-(S-methanesulfonimidoyl)-1,1′-biphenyl (UCM-1306), an Orally Bioavailable Positive Allosteric Modulator of the Human Dopamine D1 Receptor for Parkinson’s Disease” (Journal of Medicinal Chemistry, 2022).
≈ marks a conversion by molar mass, not a printed value. Entries after “also recorded” stand apart in the source; their conditions may differ.

Columns and labels:
[1] = parallel artificial membrane permeability assay (PAMPA); assay type: in vitro ADME; conditions: read-out: P
Experimental: Parallel artificial membrane permeability assay (PAMPA). The assessment of the membrane permeability of selected compounds and reference compounds propranolol and metoprolol was performed in a commercially available 96-well Corning Gentest pre-coated PAMPA plate system (Cultek S.L.U., Spain). Prior to use, the pre-coated PAMPA plate system was warmed to rt for 30 min and 300 μL of 200 μM solution of tested compound in 2% DMSO in PBS were added to the wells in the receiver (donor) plate.
Then, 200 μL of PBS were added to the wells in the filter (acceptor) plate. The filter plate was placed on the receiver plate by slowly lowering the pre-coated PAMPA plate until it sits on the receiver plate. […] The final concentrations of compound in both donor and acceptor wells were analyzed by HPLC-MS using SIM mode, and quantification was estimated by using the peak area integration normalized with an internal standard. Permeability value of the compounds was calculated using the following formula: P (cm/s) = {-ln[1-CA(t)/Ceq]}/[A*(1/VD+1/VA)*t], where A = filter area (0.3 cm2), VD = donor well volume (0.3 mL), VA = acceptor well volume (0.2 mL), t = incubation time (s), CA(t) = compound concentration (μM) in acceptor well at time t, CD(t) = compound concentration (μM) in donor well at time t, and Ceq = […]

[2] = solubility by nephelometry; assay type: physicochemical; conditions: PBS buffer with 1% DMSO; maximum solubility by nephelometry
Experimental: Prior to use, the pre-coated PAMPA plate system was warmed to rt for 30 min and 300 μL of 200 μM solution of tested compound in 2% DMSO in PBS were added to the wells in the receiver (donor) plate.
Then, 200 μL of PBS were added to the wells in the filter (acceptor) plate. The filter plate was placed on the receiver plate by slowly lowering the pre-coated PAMPA plate until it sits on the receiver plate. The assembly was incubated at rt for 5 h, and then buffer samples were collected carefully from each plate. […]
CD(t) = compound concentration (μM) in donor well at time t, and Ceq = […]
Solubility. […] The solutions were i ncubated for 2 h at 37 °C and read in a NEPHELOstar Plus instrument (BMG LABTECH). […]
Fluorescence per well was measured using a fluorescence plate reader (Tecan Infinite M1000 pro) and percentage of inhibition was calculated. hERG ion channel inhibition. […] Cell s were maintained at 37 °C in a 5% CO2 atmosphere for 24 h and at 30 °C in a 5% CO 2 atmosphere for 48 h. hERG activity was measured by using the FluxorTM Potassium Ion Chanel Assay Kit (Thermo Fisher F10016). […] After this time, 5 µL of stimulus buffer was added to each well and fluorescence was read (λ ex = 490 nm, λem = 525 nm) every second after the establishment of a baseline line using an imaging plate reader system (FDSS7000EX, Hamamatsu®). […]

C57BL/6J mice = experiment: novel object recognition test; assay type: in vivo, mouse; conditions: 1 mg/kg ip; tested at 24 and 96 h
Experimental: Procedures for animal experiments were conducted in adherence to the European Communities Council Directive (86/609/ECC) and Spanish regulations (BOE 252/34367-91, 2005) for the use of laboratory animals. Experiments were performed on 3 month old male mice with a C57BL/6J background. Eight mice were used for each experimental condition. Mice were maintained on a 12 h light/dark cycle (lights on at 08:00 am), with water and food provided ad libitum. Object recognition test was performed according to a previously reported method.[58] Briefly, mice were first habituated to an empty open field apparatus (40 × 40 × 40 cm) for 5 min. After the habituation session, mice received an ip injection of compound 26 (1 mg/kg) or vehicle (NaCl 0.9%). Twenty minutes later, mice were placed again in the open field, which now included two identical copies of an object (“familiar” object) located in two adjacent corners, and mice were allowed to explore for 10 min (acquisition session). […] The total time of object exploration (defined as the mouse touching an object with its nose or forepaws) was scored, and object recognition memory was calculated by the following discrimination ratio: time exploring the new object—time exploring the familiar object)/total time exploring both objects.

Structure (SMILES) | Papp at 5 h, 200 μM [1] | solubility at 2 h [2] | memory in the novel object recognition test (C57BL/6J mice)
O=Cc1ccc(-c2ccccc2OCF)cc1 [Compound 3, 2′-(Fluoromethoxy)[1,1′-biphenyl]-4-carbaldehyde] | 20 ×10⁻⁶ cm/s | 15 µM (≈ 3.45 µg/mL) | 
CS(=N)(=O)c1ccc(-c2ccccc2OCF)cc1 (centres unmarked) [Compound 26, 2-(Fluoromethoxy)-4′-(S-methanesulfonimidoyl)-1,1′-biphenyl] | 24 ×10⁻⁶ cm/s | 50 µM (≈ 14 µg/mL) | increases memory trace; also recorded: Enhanced memory
